Here are results for one compound from patent US20250152559A1, “METHODS FOR TREATING MYC-AMPLIFIED CANCER” (The Governing Council of the University of Toronto, priority 2023, published 2025).

In one experiment the test system is SU_MB002 PDOX. Description: Orthotopic PDOX model, tumor burden and survival. The format is in vivo, mice. The settings on record: orthotopic SU_MB002, BAY R1. As for the experimental part: The treatment-naïve, patient-derived cell line, HD-MB03, was orthotopically engrafted into immunocompromised mice. Four days later, tumors were readily detectible via bioluminescence imaging. Thereafter mice were randomized into three cohorts, which were treated with either the vehicle or one of two BAY treatment regimens (R1 and R2; FIG. 5B).
PDOX were generated by engrafting 25,000 tumor cells (both SU_MB002 and HD-MB03 cell lines), suspended in 5 μL PBS, directly into the mouse cerebrum. Flank xenografts were generated by engrafting 2,000,000 tumor cells suspended in a 100 μL solution of PBS/Matrigel® (1:1 v/v). For preclinical studies, cells were engineered to express enhanced firefly luciferase. […] Flank tumors were isolated at matched time points and formalin fixed for 48 hours, paraffin embedded (FFPE) and sectioned for follow-up analysis. Tumor area was manually measured in H&E-stained sections of FFPE tissues using ImageJ.
For imaging via the in vivo imaging system (IVIS), mice were sedated with isoflurane gas and then administered luciferin substrate (150 mg/kg in PBS) via subcutaneous injection. After 10 minutes, bioluminescent signal (photons per second; p/s) was quantified using Living Image software.

The subject of experiment [1] is p-4EBP1 and EGR1 expression in PDOX. Description: IHC of time-matched PDOX from brains of treated mice. The settings on record: PDOX after final dose, vs vehicle-treated PDOX. The format is in vivo. As for the experimental part: To determine whether mechanisms identified in vitro extend to the in vivo orthotopic model, time-matched PDOX were isolated from the brains of BAY-treated mice after the final dose of BAY was administered. […] An infrequent EGR1^+ subpopulation of tumor cells was also detected, which varied in the levels of nuclear EGR1 expression (FIG. 10H).
FFPE tissues were sectioned onto slides and then deparaffinized prior to analysis. Samples were stained with H&E for histological examination. In parallel, sections were blocked in 5% BSA (anti-Ki67, anti-4E-BP1 Thr37/46, anti-DHODH) or 5% NGS (anti-EGR1) and stained with primary antibody at 4° C. overnight. Rabbit anti-Ki67 (Thermo Fisher Scientific; Catalogue #RM-9106-S0) was diluted 1:100, rabbit anti-EGR1 (Cell Signaling Technologies; catalogue #4145) was diluted 1:200, rabbit anti-4E-BP1 Thr37/46 (Cell Signaling Technologies; catalogue #2855) was diluted 1:1000, and rabbit anti-DHODH (Proteintech 14877-1-AP) was diluted 1:200. Anti-rabbit HRP-conjugated secondary antibodies (Abcam; Catalogue #ab214880) were used with DAB for development (Vector Laboratories; Catalogue #SK-4100). All slides were scanned using Image Scope (Aperio).

Experiment [2] deals with O-GlcNAc-conjugated proteins and c-Myc in HD-MB03 and SU_MB002 tumor cells. Nature of the experiment: Western blotting of O-GlcNAc-linked proteins and c-Myc. It is filed as cell-based, human. Particulars: HD-MB03 and SU_MB002, BAY vs vehicle. The source says: Uridine metabolite depletion may impact not only the macromolecular demands of the rapidly cycling cellular phenotype identified through scRNA-seq analysis (inducing cell cycle arrest), but also the potentiation of oncogenic signaling programs. […] To determine whether reduced UDP-GlcNAc abundance influences O-GlcNAcylation of proteins and/or expression of c-Myc at the protein level, the abundance of β-O-glycosidic-linked proteins (Ser and Thr residues) and the expression of c-Myc protein in HD-MB03 and SU_MB002 tumor cells treated with BAY or its vehicle, were measured using Western blotting.
Protein lysates were isolated from approximately 500,000-1,000,000 cells. Pellets were rinsed with PBS and then lysed in RIPA buffer containing HALT™ protease inhibitor cocktail (ThermoFisher). Protein concentrations were quantified using the Bradford Assay (BioRad). Protein size was resolved via SDS-PAGE and then transferred to PVDF for immunoblotting. […] Quantification was performed by analyzing mean pixel density of each band and then normalizing to GAPDH loading control. […]

As for `CCn1c(CO)nn(-c2cc(O[C@@H](C)C(F)(F)F)c(C(=O)Nc3c(F)cccc3Cl)cc2F)c1=O` [BAY2402234], in the experiment with SU_MB002 PDOX, the overall survival entry is “increased overall survival” and the tumor burden entry was “reduced tumor burden”. Further, in experiment [1], the “EGR1 expression (IHC)” value is given as “induced EGR1 expression” and the “p-4EBP1 expression (IHC)” value is “decreased p-4EBP1 expression”. Also, in experiment [2], the “abundance of O-GlcNAc-conjugated proteins” value is on record as “global reduction” and the c-Myc protein expression entry was “significant reduction”.
